{"source": "patent US11898187B2", "about": "(priority 2017, dated 2024)", "test_system": "HiNGT, EcNGT, ApNGT and ApNGT^Q469A", "type": "biochemical", "data": [{"substance": "WGNWS", "values": [{"measurement": "differential sequence preference in regard to N-glycosylation: which NGT modifies the sequence", "result": "for EcNGT but not for HiNGT"}]}]}
